In patent US4681884A, “Diazine-ethenylphenyl oxamic acids and esters and salts thereof” (Boehringer Ingelheim Pharmaceuticals, Inc., priority 1985, dated 1987):
Counter-ions that a name gives are not always drawn.

Test system: Passive Cutaneous Anaphylaxis
Assay: Passive Cutaneous Anaphylaxis (PCA) Assay, in vivo anti-allergic activity
Set-up: species or system rat
Conditions: 10 mg/kg, p.o.; oral administration 30 minutes before ovalbumin challenge; blued area vs control
Procedure: Passive Cutaneous Anaphylaxis (PCA) Assay
Representative compounds of the present invention were tested comparatively with cromoglycate to determine in vivo anti-allergic activity. The anti-allergic properties were ascertained in rats by the Passive Cutaneous Anaphylaxis test (PCA) essentially as described by Goose and Blair, Immunology, 16: 749-760 (1969).
Rat serum was diluted so that skin reactions with diameters between 10 and 15 mm in unsensitized rats were produced. The PCA test was performed in duplicate by injecting 0.1 ml of this antiserum dilution on each side of the shaved back of rats. Rats so treated were injected intravenously (i.v.) twenty-four hours later with 0.02 mg ovalbumin in 0.5 ml of 1% Evans Blue solution within five minutes after intravenous administration or 30 minutes after oral administration of the test compounds. Thirty minutes after the ovalbumin challenge the rats were killed by CO2 -asphyxiation, and the skin was reflected. The diameters, in millimeters, of the blued areas were measured and the mean diameter was determined. The circular area was calculated, and the mean area in square millimeters of the control group was considered as 100%. The results of the compound test groups were expressed as a percentage change from these control values. From dose response curves the dose reducing the size of the blued area by 50% (ED50) was estimated.

Row | Molecule | % Inhibition [%]
1 | CCOC(=O)C(=O)Nc1cc(C=Cc2ccc(Cl)nn2)cc(NC(=O)C(=O)OCC)c1Cl [Example 37, Diethyl 2-(6-chloropyridazin-3-yl)ethenyl (4-chlorophenyl)-3,5dioxamate] | 54

Same assay, conditions: 10 mg/kg, p.o.; repeat test

Row | Molecule | % Inhibition (repeat) [%]
2 | O=C(O)C(=O)Nc1cccc(C=Cc2ccnc(NC(=O)C(=O)O)n2)c1 [Example 29, 2-(2-Carboxycarbonylamino-pyrimidin-4-yl)ethenyl-phenyl-3 oxamic acid tetra-sodium salt di-hydrate] | 2

Same assay, conditions: Rattus norvegicus, 0.5 h; 3 mg/kg, i.v.; ovalbumin challenge within five minutes after intravenous administration

Row | Molecule | inhibition in vivo at 3 mg/kg [%]
3 | O=C(O)C(=O)Nc1ccc(C=Cc2ccncn2)cc1 [Example 2, 2-(4-Pyrimidinyl)ethenylphenyl-4 oxamic acid ethanolamine salt] | 63

Same assay, conditions: Rattus norvegicus, 0.5 h; 10 mg/kg, p.o.; oral administration 30 minutes before ovalbumin challenge; blued area vs control

Row | Molecule | inhibition in vivo at 10 mg/kg [%]
4 | CCOC(=O)C(=O)Nc1ccccc1C=Cc1ccncn1 [Example 6, Ethyl 2-(4-pyrimidinyl)ethenylphenyl-2 oxamate] | 20
5 | CCOC(=O)C(=O)Nc1cc(C=Cc2ccncn2)ccc1OCCN(C)C [Example 11, Ethyl 2-(4-pyrimidinyl)ethenyl-4-N,N--dimethylaminoethoxyphenyl-3 oxamate] | 9
6 | CCOC(=O)C(=O)Nc1cccc(C=Cc2ccnc(NC(C)=O)n2)c1 [Example 16, Ethyl 2-(2-acetamidopyrimidin-4-yl)ethenylphenyl-3 oxamate] | 42
7 | CC(=O)Nc1nccc(C=Cc2cccc(NC(=O)C(=O)O)c2)n1 [Example 17, 2-(2-Acetamidopyrimidin-4-yl)ethenylphenyl-3 oxamic acid tromethane salt] | 37
8 | O=C(O)C(=O)Nc1ccc(C=Cc2cccnn2)cc1 [Example 19, 2-(3-Pyridazinyl)ethenylphenyl-4 oxamic acid ethanolamine salt] | 0
9 | CCOC(=O)C(=O)Nc1cccc(C=Cc2cc(NC(=O)C(=O)OCC)nc(C)n2)c1 [Example 26, Ethyl 2-(2-methyl-6-ethoxyoxalyl-aminopyrimidin-4-yl)-ethenylphenyl-3 oxamate hemihydrate] | 64
10 | Cc1nc(C=Cc2cccc(NC(=O)C(=O)O)c2)cc(NC(=O)C(=O)O)n1 [Example 27, 2-(2-Methyl-6-carboxycarbonyl-aminopyrimidin-4-yl)-ethenylphenyl-3 oxamic acid di-tromethane salt] | 0
11 | CCOC(=O)C(=O)Nc1cccc(C=Cc2ccnc(NC(=O)C(=O)OCC)n2)c1 [Example 28, Ethyl 2-(2-ethoxyoxalylamino-pyrimidin-4-yl)ethenyl-phenyl-3 oxamate] | 5
12 | O=C(O)C(=O)Nc1cccc(C=Cc2ccnc(NC(=O)C(=O)O)n2)c1 [Example 29, 2-(2-Carboxycarbonylamino-pyrimidin-4-yl)ethenyl-phenyl-3 oxamic acid tetra-sodium salt di-hydrate] | 67
13 | CCOC(=O)C(=O)Nc1ccc(C=Cc2nccnc2CC)cc1 [Example 30, Ethyl 2-(3-ethylpyrazin-2-yl)ethenylphenyl-4 oxamate] | 6
14 | CCc1nccnc1C=Cc1ccc(NC(=O)C(=O)O)cc1 [Example 31, 2-(3-Ethylpyrazin-2-yl)ethenyl-phenyl-4 oxamic acid ethanolamine salt] | 15
15 | CCOCCOC(=O)C(=O)Nc1ccc(C=Cc2cnccn2)cc1 [Example 32, Ethoxyethyl 2-(2-pyrazinyl)ethenylphenyl-4 oxamate] | 46
16 | CCOCCOC(=O)C(=O)Nc1ccc(C=Cc2cc(N)nc(C)n2)cc1 [Example 33, Ethoxyethyl 2-(2-methyl-6-aminopyrimidin-4-yl)-ethenylphenyl-4 oxamate hemihydrate] | 52

Same assay, conditions: Rattus norvegicus, iv; ovalbumin challenge within five minutes; estimated from dose response curves; read-out: ED50 (dose reducing the size of the blued area by 50%)

Row | Molecule | ED50 [mg/kg]
17 | Cc1nc(C=Cc2cccc(NC(=O)C(=O)O)c2)cc(NC(=O)C(=O)O)n1 [Example 27, 2-(2-Methyl-6-carboxycarbonyl-aminopyrimidin-4-yl)-ethenylphenyl-3 oxamic acid di-tromethane salt] | 0.03
18 | O=C(O)C(=O)Nc1ccc(C=Cc2cnccn2)c(NC(=O)C(=O)O)c1 [Example 35, 2-(2-Pyrazinyl)ethenylphenyl-2,4 dioxamic acid di-ethanolamine salt] | 0.53
19 | O=C(O)C(=O)Nc1ccc(C=Cc2ccncn2)c(NC(=O)C(=O)O)c1 [Example 36, 2-(4-Pyrimidinyl)ethenylphenyl-2,4 dioxamic acid di-ethanolamine salt] | 0.05

Same assay, conditions: Rattus norvegicus, po; 30 minutes before ovalbumin challenge; estimated from dose response curves; read-out: ED50 (dose reducing the size of the blued area by 50%)

Row | Molecule | ED50 [mg/kg]
20 | CCOC(=O)C(=O)Nc1ccc(C=Cc2ccncn2)cc1 [Example 1, Ethyl 2-(4-pyrimidinyl)ethenylphenyl-4 oxamate] | 1.4
21 | CCOC(=O)C(=O)Nc1ccc(C=Cc2ccnc(NC(=O)C(=O)OCC)n2)cc1 [Example 3, Ethyl 2-(2-ethoxyoxalylaminopyrimidin-4-yl)-ethenylphenyl-4 oxamate] | 10
22 | CCOC(=O)C(=O)Nc1cccc(C=Cc2ccncn2)c1 [Example 4, Ethyl 2-(4-pyrimidinyl)ethenylphenyl-3 oxamate] | 2.8
23 | O=C(O)C(=O)Nc1cccc(C=Cc2ccncn2)c1 [Example 5, 2-(4-Pyrimidinyl)ethenylphenyl-3 oxamic acid ethanolamine salt] | 12.3
24 | O=C(O)C(=O)Nc1ccccc1C=Cc1ccncn1 [Example 7, 2-(4-Pyrimidinyl)ethenylphenyl-2 oxamic acid ethanolamine salt] | 8
25 | CCOC(=O)C(=O)Nc1ccc(C=Cc2ccncn2)c(O)c1 [Example 8, Ethyl 2-(4-pyrimidinyl)ethenyl-2-hydroxyphenyl-4 oxamate] | 4.5
26 | CCOC(=O)C(=O)Nc1ccc(C=Cc2ccncn2)c(NC(=O)C(=O)OCC)c1 [Example 12, Diethyl 2-(4-pyrimidinyl)ethenylphenyl-2,4-dioxamate] | 2
27 | CCOC(=O)C(=O)Nc1ccc(C=Cc2cc(OCC)nc(OCC)n2)cc1 [Example 13, Ethyl 2-(2,6-diethoxypyrimidin-4-yl)ethenylphenyl-4 oxamate] | 30
28 | CCOC(=O)C(=O)Nc1ccc(C=Cc2cc(N)nc(C)n2)cc1 [Example 14, Ethyl 2-(2-methyl-6-aminopyrimidin-4-yl)ethenyl phenyl-4 oxamate] | 10
29 | CCOC(=O)C(=O)Nc1ccc(C=Cc2cc(C)ncn2)cc1 [Example 15, Ethyl 2-(6-methylpyrimidin-4-yl)ethenylphenyl-4 oxamate] | 1.1
30 | CCOC(=O)C(=O)Nc1ccc(C=Cc2cccnn2)cc1 [Example 18, Ethyl 2-(3-pyridazinyl)ethenylphenyl-4 oxamate] | 1
31 | CCOC(=O)C(=O)Nc1ccc(C=Cc2cnccn2)cc1 [Example 20, Ethyl 2-(2-pyrazinyl)ethenylphenyl-4 oxamate] | 4.6
32 | O=C(O)C(=O)Nc1ccc(C=Cc2cnccn2)cc1 [Example 21, 2-(2-Pyrazinyl)ethenylphenyl-4 oxamic acid sodium salt] | 10
33 | CCOC(=O)C(=O)Nc1cccc(C=Cc2cnccn2)c1 [Example 22, Ethyl 2-(2-pyrazinyl)ethenylphenyl-3 oxamate] | 4
34 | O=C(O)C(=O)Nc1cccc(C=Cc2cnccn2)c1 [Example 23, 2-(2-Pyrazinyl)ethenylphenyl-3 oxamic acid ethanolamine salt] | < 1
35 | CCOC(=O)C(=O)Nc1ccc(C=Cc2cc(NC(=O)C(=O)OCC)nc(C)n2)cc1 [Example 24, Ethyl 2-(2-methyl-6-ethoxyoxalylaminopyrimidin-4-yl)-ethenylphenyl-4 oxamate] | 0.3
36 | Cc1nc(C=Cc2ccc(NC(=O)C(=O)O)cc2)cc(NC(=O)C(=O)O)n1 [Example 25, 2-(2-Methyl-6-carboxycarbonylaminopyrimidin-4-yl)-ethenylphenyl-4 oxamic acid hydrate diethanolamine salt] | 4
37 | CCOC(=O)C(=O)Nc1cccc(C=Cc2cc(NC(=O)C(=O)OCC)nc(C)n2)c1 [Example 26, Ethyl 2-(2-methyl-6-ethoxyoxalyl-aminopyrimidin-4-yl)-ethenylphenyl-3 oxamate hemihydrate] | < 10

Same assay, conditions: p.o.; 30 minutes before ovalbumin challenge; estimated from dose response curves

Row | Molecule | ED50 (dose reducing the size of the blued area by 50%)
38 | O=C(O)c1cc(=O)c2c(OCC(O)COc3cccc4oc(C(=O)O)cc(=O)c34)cccc2o1 [Cromoglycate] | Inactive
39 | Ethyl 2-(4-pyrimidinyl)ethenyl-6-chlorophenyl-3 oxamate [Example 9] | 2 mg/kg, p.o.

Test system: not given
Assay: not given
Conditions: given orally; cited from earlier work

Row | Molecule | antiallergic activity when given orally
40 | O=C(O)c1cc(=O)c2c(OCC(O)COc3cccc4oc(C(=O)O)cc(=O)c34)cccc2o1 [Cromoglycate] | not active

Same assay, conditions: inhalation as a solid; cited from earlier work

Row | Molecule | bronchodilator when given by inhalation as a solid
41 | O=C(O)c1cc(=O)c2c(OCC(O)COc3cccc4oc(C(=O)O)cc(=O)c34)cccc2o1 [Cromoglycate] | effective
